Assay results: patent publication US20260092071A1, “COMPOUNDS AND COMPOSITIONS AS SMARCA2/4 DEGRADERS AND USES THEREOF” (REGENTS OF THE UNIVERSITY OF MICHIGAN, priority 2022, published 2026)

How the values were obtained:
SMARCA4 = SMARCA4 (Homo sapiens, UniProt P51532); assay: HiBiT assay for protein degradation, Hela SMARCA4-HiBiT cells (A series); type: cell-based; set-up: fuse HiBiT to the carboxy terminus of SMARCA2 (Promega CS302365) or SMARCA4 (Promega CS3023225); host or cells: HeLa (CRISPR/Cas9 HiBiT knock-in); settings: Hela SMARCA4-HiBiT cells, 24 hours treatment; for DC50: read-out: SMARC A4 Hela HiBit DC50; for Dmax: read-out: SMARC A4 Hela HiBit Dmax
Sequence of SMARCA4 (P51532 whole entry): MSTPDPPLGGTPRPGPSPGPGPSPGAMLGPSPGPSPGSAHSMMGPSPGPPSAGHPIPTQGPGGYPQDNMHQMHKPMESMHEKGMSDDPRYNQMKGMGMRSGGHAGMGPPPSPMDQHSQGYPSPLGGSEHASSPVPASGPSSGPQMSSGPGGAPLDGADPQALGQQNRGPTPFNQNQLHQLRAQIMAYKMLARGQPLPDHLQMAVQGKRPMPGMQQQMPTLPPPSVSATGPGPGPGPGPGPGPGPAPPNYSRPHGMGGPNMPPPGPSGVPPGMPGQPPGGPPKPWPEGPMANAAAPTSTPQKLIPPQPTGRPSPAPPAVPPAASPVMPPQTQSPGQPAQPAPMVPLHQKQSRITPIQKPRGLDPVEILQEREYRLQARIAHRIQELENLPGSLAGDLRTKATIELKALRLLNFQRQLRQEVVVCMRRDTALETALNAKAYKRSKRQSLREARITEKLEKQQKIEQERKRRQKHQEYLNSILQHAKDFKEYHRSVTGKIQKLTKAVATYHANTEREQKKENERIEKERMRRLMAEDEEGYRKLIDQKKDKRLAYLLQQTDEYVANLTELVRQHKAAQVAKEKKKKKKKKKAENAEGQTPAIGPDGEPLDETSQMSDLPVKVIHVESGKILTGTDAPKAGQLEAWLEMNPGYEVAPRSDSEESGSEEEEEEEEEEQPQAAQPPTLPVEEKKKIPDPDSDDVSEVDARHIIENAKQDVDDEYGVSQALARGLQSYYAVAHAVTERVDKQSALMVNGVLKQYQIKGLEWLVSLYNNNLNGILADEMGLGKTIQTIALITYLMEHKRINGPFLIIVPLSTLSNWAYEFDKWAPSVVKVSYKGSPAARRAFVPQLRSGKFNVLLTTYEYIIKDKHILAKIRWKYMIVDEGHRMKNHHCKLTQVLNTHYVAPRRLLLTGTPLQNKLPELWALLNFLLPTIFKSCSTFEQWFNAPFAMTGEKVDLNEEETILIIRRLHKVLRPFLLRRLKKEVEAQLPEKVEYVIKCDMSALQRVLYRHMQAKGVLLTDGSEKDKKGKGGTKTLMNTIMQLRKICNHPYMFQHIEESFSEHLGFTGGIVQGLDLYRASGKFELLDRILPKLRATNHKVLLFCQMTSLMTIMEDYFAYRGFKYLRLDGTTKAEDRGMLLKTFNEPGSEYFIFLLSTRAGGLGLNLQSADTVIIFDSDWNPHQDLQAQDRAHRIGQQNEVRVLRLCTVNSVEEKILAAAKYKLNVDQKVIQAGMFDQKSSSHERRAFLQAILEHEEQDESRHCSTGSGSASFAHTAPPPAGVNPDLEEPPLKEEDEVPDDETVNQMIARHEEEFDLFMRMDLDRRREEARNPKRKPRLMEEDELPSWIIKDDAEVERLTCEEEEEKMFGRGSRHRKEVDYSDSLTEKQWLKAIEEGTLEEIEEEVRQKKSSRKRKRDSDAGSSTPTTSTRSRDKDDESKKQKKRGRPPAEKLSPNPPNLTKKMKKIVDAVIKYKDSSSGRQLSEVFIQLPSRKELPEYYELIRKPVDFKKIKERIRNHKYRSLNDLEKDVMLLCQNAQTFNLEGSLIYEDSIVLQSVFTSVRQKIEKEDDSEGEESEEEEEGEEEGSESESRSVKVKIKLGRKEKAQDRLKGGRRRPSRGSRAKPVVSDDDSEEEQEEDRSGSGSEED
Procedure, shortened: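 SMARCA4 degradation was measured in HeLa cells in which HiBiT had been knocked into the SMARCA4 carboxy terminus via CRISPR/Cas9 (Promega CS3023225). Cells were maintained in DMEM with FBS and penicillin-streptomycin. At the end of treatment, SMARCA4 levels were read by lytic HiBiT luminescence (Nano-Glo®, Promega N3050), and data were analyzed with GraphPad Prism.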

SMARCA2 = SMARCA2 (Homo sapiens, UniProt P51531); assay: HiBiT assay for protein degradation, Hela SMARCA2-HiBiT cells (A series); type: cell-based; set-up: Hela cells were genetically modified via CRISPR/Cas9 to fuse HiBiT to the carboxy terminus of SMARCA2; host or cells: HeLa (CRISPR/Cas9 HiBiT knock-in); settings: Hela SMARCA2-HiBiT cells, 24 hours treatment; for DC50: read-out: SMARC A2 Hela HiBit DC50; for Dmax: read-out: SMARC A2 Hela HiBit Dmax (%);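 for SMARC A2 Hela HiBit Dmax (%): 24 h compound treatment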
Sequence of SMARCA2 (P51531 whole entry): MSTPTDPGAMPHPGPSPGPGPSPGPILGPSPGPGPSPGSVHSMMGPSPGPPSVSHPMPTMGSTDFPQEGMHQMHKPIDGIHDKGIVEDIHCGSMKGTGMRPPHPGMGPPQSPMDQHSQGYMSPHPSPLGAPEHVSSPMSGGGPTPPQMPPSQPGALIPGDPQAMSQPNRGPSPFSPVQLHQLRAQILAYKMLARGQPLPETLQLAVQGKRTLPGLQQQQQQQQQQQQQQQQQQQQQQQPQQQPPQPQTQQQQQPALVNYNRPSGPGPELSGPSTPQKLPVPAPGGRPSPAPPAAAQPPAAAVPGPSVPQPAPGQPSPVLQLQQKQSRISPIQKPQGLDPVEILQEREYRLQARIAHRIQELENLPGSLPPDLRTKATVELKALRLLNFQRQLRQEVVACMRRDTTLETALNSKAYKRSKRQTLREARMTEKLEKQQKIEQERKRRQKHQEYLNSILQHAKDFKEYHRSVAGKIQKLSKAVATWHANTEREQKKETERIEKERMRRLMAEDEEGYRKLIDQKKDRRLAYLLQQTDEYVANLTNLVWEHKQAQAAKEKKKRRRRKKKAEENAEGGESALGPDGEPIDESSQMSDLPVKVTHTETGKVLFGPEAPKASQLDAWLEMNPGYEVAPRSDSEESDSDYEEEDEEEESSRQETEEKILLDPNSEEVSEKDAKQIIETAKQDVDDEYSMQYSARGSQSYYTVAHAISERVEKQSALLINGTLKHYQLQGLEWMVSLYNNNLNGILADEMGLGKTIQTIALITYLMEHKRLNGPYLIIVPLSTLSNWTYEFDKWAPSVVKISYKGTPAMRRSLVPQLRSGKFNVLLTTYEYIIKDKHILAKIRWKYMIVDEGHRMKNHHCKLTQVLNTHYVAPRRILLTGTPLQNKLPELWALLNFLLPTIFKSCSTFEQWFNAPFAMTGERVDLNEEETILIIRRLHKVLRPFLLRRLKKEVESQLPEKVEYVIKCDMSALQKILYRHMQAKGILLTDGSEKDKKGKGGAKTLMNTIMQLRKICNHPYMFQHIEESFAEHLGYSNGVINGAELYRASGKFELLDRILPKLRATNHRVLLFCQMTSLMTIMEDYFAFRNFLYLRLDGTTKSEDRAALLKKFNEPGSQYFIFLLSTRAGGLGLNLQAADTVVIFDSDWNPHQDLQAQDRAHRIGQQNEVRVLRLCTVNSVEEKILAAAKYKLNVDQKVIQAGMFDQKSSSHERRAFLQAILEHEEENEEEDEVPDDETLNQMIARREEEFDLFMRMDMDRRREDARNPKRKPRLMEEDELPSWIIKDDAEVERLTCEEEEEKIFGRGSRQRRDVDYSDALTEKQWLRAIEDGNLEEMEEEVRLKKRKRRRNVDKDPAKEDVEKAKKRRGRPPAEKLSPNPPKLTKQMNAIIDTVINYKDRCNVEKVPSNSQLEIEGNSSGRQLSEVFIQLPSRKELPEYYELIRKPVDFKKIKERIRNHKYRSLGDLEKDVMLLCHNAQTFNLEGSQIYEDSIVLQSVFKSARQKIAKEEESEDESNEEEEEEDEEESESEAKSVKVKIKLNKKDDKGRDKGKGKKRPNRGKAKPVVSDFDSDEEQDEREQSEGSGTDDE
Procedure, shortened: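 SMARCA2 degradation was measured in HeLa cells whose endogenous SMARCA2 carries a carboxy-terminal HiBiT tag introduced by CRISPR/Cas9 (Promega CS302365). Cells were maintained in DMEM with FBS and penicillin-streptomycin. SMARCA2 levels were read at the end of the experiment by Nano-Glo® HiBiT lytic luminescence (Promega N3050) and analyzed in GraphPad Prism.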

| DC50 (SMARCA4) [nM] | Dmax (SMARCA4) [%] | DC50 (SMARCA2) [nM] | Dmax (SMARCA2) [%] | SMARC A4 Hela HiBit DC50(nM) (SMARCA4) | Compound |
| --- | --- | --- | --- | --- | --- |
| 10 to 100 | > 90 | 10 to 100 | 70 to 90 | – | Cc1ncsc1-c1ccc([C@H](Cn2cc(CN3CCC(c4ccc5c(c4)C4(CCCCC4)c4nc(=O)c6c(Br)cccc6n4-5)CC3)nn2)NC(=O)[C@@H]2C[C@@H](O)CN2C(=O)[C@@H](n2cc(C3CC3)nn2)C(C)(C)C)cc1 [Compound A115, (2S,4R)—N—((R)-2-(4-((4-(4′-bromo-5′-oxo-5′H-spiro[cyclohexane-1,7′-indolo[1,2-a]quinazolin]-9′-yl)piperidin-1-yl)methyl)-1H-1,2,3-triazol-1-yl)-1-(4-(4-methylthiazol-5-yl)phenyl)ethyl)-1-((S)-2-(4-cyclopropyl-1H-1,2,3-triazol-1-yl)-3,3-dimethylbutanoyl)-4-hydroxypyrrolidine-2-carboxamide] |
| > 1000 | < 50 | > 1000 | < 50 | – | Cc1ncsc1-c1ccc([C@H](CNC(=O)[C@H]2CC[C@H](CN3CCC(c4ccc5c(c4)-n4c(nc(=O)c6c(Br)cccc64)C54CCCCC4)CC3)CC2)NC(=O)[C@@H]2C[C@@H](O)CN2C(=O)[C@@H](n2cc(C3CC3)nn2)C(C)(C)C)cc1 [Compound A116, (2S,4R)—N—((R)-2-((1r,4R)-4-((4-(4′-bromo-5′-oxo-5′H-spiro[cyclohexane-1,7′-indolo[1,2-a]quinazolin]-10′-yl)piperidin-1-yl)methyl)cyclohexane-1-carboxamido)-1-(4-(4-methylthiazol-5-yl)phenyl)ethyl)-1-((S)-2-(4-cyclopropyl-1H-1,2,3-triazol-1-yl)-3,3-dimethylbutanoyl)-4-hydroxypyrrolidine-2-carboxamide] |
| > 1000 | < 50 | > 1000 | < 50 | – | Cc1ncsc1-c1ccc([C@H](CNC(=O)[C@H]2CC[C@H](CN3CCC(c4ccc5c(c4)C4(CCCCC4)c4nc(=O)c6c(Br)cccc6n4-5)CC3)CC2)NC(=O)[C@@H]2C[C@@H](O)CN2C(=O)[C@@H](n2cc(C3CC3)nn2)C(C)(C)C)cc1 [Compound A117, (2S,4R)—N—((R)-2-((1r,4R)-4-((4-(4′-bromo-5′-oxo-5′H-spiro[cyclohexane-1,7′-indolo[1,2-a]quinazolin]-9′-yl)piperidin-1-yl)methyl)cyclohexane-1-carboxamido)-1-(4-(4-methylthiazol-5-yl)phenyl)ethyl)-1-((S)-2-(4-cyclopropyl-1H-1,2,3-triazol-1-yl)-3,3-dimethylbutanoyl)-4-hydroxypyrrolidine-2-carboxamide] |
| 100 to 1000 | 50 to 69 | < 10 | > 90 | – | Cc1ncsc1-c1ccc([C@H](C)NC(=O)[C@@H]2C[C@@H](O)CN2C(=O)[C@H](C2CCCCC2)n2cc([C@H]3CC[C@H](CN4CCC(c5ccc6c(c5)-n5c(nc(=O)c7c(Cl)cccc75)C65CCCCC5)CC4)CC3)nn2)cc1 [Compound A118, (2S,4R)-1-((S)-2-(4-((1r,4S)-4-((4-(4′-chloro-5′-oxo-5′H-spiro[cyclohexane-1,7′-indolo[1,2-a]quinazolin]-10′-yl)piperidin-1-yl)methyl)cyclohexyl)-1H-1,2,3-triazol-1-yl)-2-cyclohexylacetyl)-4-hydroxy-N—((S)-1-(4-(4-methylthiazol-5-yl)phenyl)ethyl)pyrrolidine-2-carboxamide] |
| 10 to 100 | 70 to 90 | < 10 | > 90 | – | Cc1ncsc1-c1ccc([C@H](C)NC(=O)[C@@H]2C[C@@H](O)CN2C(=O)[C@H](C2CCCCC2)n2cc([C@H]3CC[C@H](CN4CCC(c5ccc6c(c5)-n5c(nc(=O)c7c(Br)cccc75)C65CCCCC5)CC4)CC3)nn2)cc1 [Compound A119, (2S,4R)-1-((S)-2-(4-((1r,4S)-4-((4-(4′-bromo-5′-oxo-5′H-spiro[cyclohexane-1,7′-indolo[1,2-a]quinazolin]-10′-yl)piperidin-1-yl)methyl)cyclohexyl)-1H-1,2,3-triazol-1-yl)-2-cyclohexylacetyl)-4-hydroxy-N—((S)-1-(4-(4-methylthiazol-5-yl)phenyl)ethyl)pyrrolidine-2-carboxamide] |
| – | 50 to 69 | < 10 | > 90 | No fit | Cc1ncsc1-c1ccc([C@H](C)NC(=O)[C@@H]2C[C@@H](O)CN2C(=O)[C@H](C2CCOCC2)n2cc([C@H]3CC[C@H](CN4CCC(c5ccc6c(c5)-n5c(nc(=O)c7c(Cl)cccc75)C65CCCCC5)CC4)CC3)nn2)cc1 [Compound A120, (2S,4R)-1-((S)-2-(4-((1r,4S)-4-((4-(4′-chloro-5′-oxo-5′H-spiro[cyclohexane-1,7′-indolo[1,2-a]quinazolin]-10′-yl)piperidin-1-yl)methyl)cyclohexyl)-1H-1,2,3-triazol-1-yl)-2-(tetrahydro-2H-pyran-4-yl)acetyl)-4-hydroxy-N—((S)-1-(4-(4-methylthiazol-5-yl)phenyl)ethyl)pyrrolidine-2-carboxamide] |
| – | 70 to 90 | < 10 | > 90 | No fit | Cc1ncsc1-c1ccc([C@H](C)NC(=O)[C@@H]2C[C@@H](O)CN2C(=O)[C@H](C2CCOCC2)n2cc([C@H]3CC[C@H](CN4CCC(c5ccc6c(c5)-n5c(nc(=O)c7c(Br)cccc75)C65CCCCC5)CC4)CC3)nn2)cc1 [Compound A121, (2S,4R)-1-((S)-2-(4-((1r,4S)-4-((4-(4′-bromo-5′-oxo-5′H-spiro[cyclohexane-1,7′-indolo[1,2-a]quinazolin]-10′-yl)piperidin-1-yl)methyl)cyclohexyl)-1H-1,2,3-triazol-1-yl)-2-(tetrahydro-2H-pyran-4-yl)acetyl)-4-hydroxy-N—((S)-1-(4-(4-methylthiazol-5-yl)phenyl)ethyl)pyrrolidine-2-carboxamide] |
| – | 50 to 69 | < 10 | > 90 | No fit | Cc1ncsc1-c1ccc([C@H](CN2CCOCC2)NC(=O)[C@@H]2C[C@@H](O)CN2C(=O)[C@H](C2CCCCC2)n2cc([C@H]3CC[C@H](CN4CCC(c5ccc6c(c5)-n5c(nc(=O)c7c(Cl)cccc75)C65CCCCC5)CC4)CC3)nn2)cc1 [Compound A122, (2S,4R)-1-((S)-2-(4-((1r,4S)-4-((4-(4′-chloro-5′-oxo-5′H-spiro[cyclohexane-1,7′-indolo[1,2-a]quinazolin]-10′-yl)piperidin-1-yl)methyl)cyclohexyl)-1H-1,2,3-triazol-1-yl)-2-cyclohexylacetyl)-4-hydroxy-N—((R)-1-(4-(4-methylthiazol-5-yl)phenyl)-2-morpholinoethyl)pyrrolidine-2-carboxamide] |
| 10 to 100 | 70 to 90 | < 10 | > 90 | – | Cc1ncsc1-c1ccc([C@H](CN2CCOCC2)NC(=O)[C@@H]2C[C@@H](O)CN2C(=O)[C@H](C2CCCCC2)n2cc([C@H]3CC[C@H](CN4CCC(c5ccc6c(c5)-n5c(nc(=O)c7c(Br)cccc75)C65CCCCC5)CC4)CC3)nn2)cc1 [Compound A123, (2S,4R)-1-((S)-2-(4-((1r,4S)-4-((4-(4′-bromo-5′-oxo-5′H-spiro[cyclohexane-1,7′-indolo[1,2-a]quinazolin]-10′-yl)piperidin-1-yl)methyl)cyclohexyl)-1H-1,2,3-triazol-1-yl)-2-cyclohexylacetyl)-4-hydroxy-N—((R)-1-(4-(4-methylthiazol-5-yl)phenyl)-2-morpholinoethyl)pyrrolidine-2-carboxamide] |
| – | < 50 | < 10 | > 90 | No fit | Cc1ncsc1-c1ccc([C@H](C)NC(=O)[C@@H]2C[C@@H](O)CN2C(=O)[C@H](C2CCCCC2)n2cc([C@H]3CC[C@H](CN4CCC(c5ccc6c(c5)-n5c(nc(=O)c7c(Cl)cccc75)C6(C)C)CC4)CC3)nn2)cc1 [Compound A124, (2S,4R)-1-((S)-2-(4-((1r,4S)-4-((4-(4-chloro-7,7-dimethyl-5-oxo-5,7-dihydroindolo[1,2-a]quinazolin-10-yl)piperidin-1-yl)methyl)cyclohexyl)-1H-1,2,3-triazol-1-yl)-2-cyclohexylacetyl)-4-hydroxy-N—((S)-1-(4-(4-methylthiazol-5-yl)phenyl)ethyl)pyrrolidine-2-carboxamide] |
